Data reported in PubChem BioAssay AID1963980 (Molecular Pharmacology Branch, DTP, NCI, 2024).
“And” between values parts separate entries of the source, which are not always exact repeats. Equal entries are not always repeated. Each block holds one compound with its values, some of them ahead of it.

Test system: 475296-252-R-J1-PDC spheroid viability
Assay: Anticancer human tumor 475296-252-R-J1-PDC patient-derived rectal carcinoma cell line growth inhibition [PI3K]
Settings: spheroids with HUVEC and MSC; for viability, T/C: stronger effect = lower value
Description: Combinatorial screen of targeted agents with the PI3K inhibitors inavolisib, alpelisib, duvelisib, and copanlisib in multi-cell type tumor spheroids
A high-throughput screen of multi-cell type tumor spheroids was designed to identify active combinations of targeted small molecules and PI3K pathway inhibitors. Complex spheroids include a stromal component modeled by human endothelial cells (HUVEC) and fibroblasts modeled by human mesenchymal stem cells (MSCs). The concentration ranges selected for each drug and investigational agent were based upon clinically achievable concentrations if the clinical Cmax of the agent was known.
Compounds. The drugs and investigational agents: inavolisib (NSC800729), alpelisib (NSC765974), duvelisib (NSC772469), copanlisib (NSC816437), ipatasertib (NSC767898), afuresertib (NSC778305), talazoparib (NSC767125), sapanisertib (NSC764658), selumetinib (NSC741078), tovorafenib (DAY101, NSC766906), vemurafenib (NSC761431), ravoxertinib (NSC781343), sotorasib (NSC818433), MRTX1133 (NSC 836407), abemaciclib (NSC 768073), palbociclib (NSC758247), venetoclax (NSC 766270), SY5609 (NSC837396), enzalutamide (NSC755605), and darolutamide (NSC825331), were obtained from the National Cancer Institute (NCI) Developmental Therapeutics Program Chemical Repository. The FDA-approved anticancer drug set is available from the NCI Developmental Therapeutics Program. […] The stock solutions were prepared in dimethyl sulfoxide (DMSO, Sigma-Aldrich, St. Louis, MO, cat. D2650) at 800-fold the tested concentration and stored at -70 degrees C prior to their use. All drugs and investigational agents were tested over a range starting from a high concentration at or near the clinical Cmax and decreasing in half-log increments. If the clinical Cmax for an agent had not been determined, the highest concentration tested was 10 microM.
Cell Culture. All cells were maintained in an incubator at 37 degrees C and 5% CO2 with 95% humidity. The PDC lines were cultured according to standard operating procedures established by the NCI PDMR (https://pdmr.cancer.gov/sops/default.htm). All PDCs were thawed and cultured in Matrigel-coated flasks prepared with a working solution of 1X Ham's F-12 nutrient mix, without supplementation (Invitrogen, Waltham, MA, cat. 11765054), 100 U/mL penicillin-streptomycin (Invitrogen, cat. 15140122), and 2.5% Matrigel (Corning Inc., Corning, NY, cat. 354248) for the first three passages. The 354836-022-R-J1-PDC, 475296-252-R-J1-PDC, and 997726-040-R-J2-PDC lines were cultured in 6A media, which includes advanced DMEM/F-12 (Thermo Fisher Scientific, cat. 12634028), 10 mM HEPES (Thermo Fisher Scientific, cat. 15630080), 1X GlutaMAX supplement (Thermo Fisher Scientific, cat. 35050061), 0.1 mg/mL primocin (InvivoGen, San Diego, CA, cat. ant-pm-2), 10% defined fetal bovine serum, heat inactivated (HyClone Laboratories Inc., Logan, UT, cat. SH30070.03HI), 50% L-WRN conditioned media (ATCC, cat. CRL-3276), 1.25 mM N-Acetyl-L-cysteine (Sigma-Aldrich, cat. A9165), 10 mM nicotinamide (Sigma-Aldrich, cat. N0636), 1X B-27 supplement (Thermo Fisher Scientific, cat. 17504044), 1X N-2 supplement (Thermo Fisher Scientific, cat. 17502048), and 10 microM Y-27632 dihydrochloride (Tocris Bioscience, Bristol, United Kingdom, cat. 1254). The 624824-186-R-J2-PDC line was cultured in 6C/Colon 1B media, which includes all 6A media components plus 50 ng/mL human EGF recombinant protein (Thermo Fisher Scientific, cat. PHG0311). […]
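Further: spheroids exposed to agents for seven days before readout.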

Structure (SMILES): CC(=O)c1c(C)c2cnc(Nc3ccc(N4CCNCC4)cn3)nc2n(C2CCCC2)c1=O
viability, T/C (compound 0.000316 µM): 106% [middle of 4 runs]
viability, T/C (compound 0.001 µM): 98.3% [middle of 4 runs]
viability, T/C (compound 0.00316 µM): 98% [middle of 4 runs]
viability, T/C (compound 0.01 µM): 98.9% [middle of 4 runs]
viability, T/C (compound 0.0316 µM): 108% [middle of 4 runs]
viability, T/C (compound 0.1 µM): 108% [middle of 4 runs]
IC50 (curve of compound): > 0.1 µM

Structure (SMILES): CC(C)NCC(C(=O)N1CCN(c2ncnc3c2C(C)CC3O)CC1)c1ccc(Cl)cc1 (centres undefined)
viability, T/C (compound 0.0316 µM): 102% [middle of 4 runs]
viability, T/C (compound 0.1 µM): 105% [middle of 4 runs]
viability, T/C (compound 0.316 µM): 89.5% [middle of 4 runs]
viability, T/C (compound 1 µM): 76.1% [middle of 4 runs]
viability, T/C (compound 3.16 µM): 75.5% [middle of 4 runs]
viability, T/C (compound 10 µM): 62.3% [middle of 4 runs]
IC50 (curve of compound): > 10 µM

Structure (SMILES): CC(Cn1ccc(-c2ccc(C#N)c(Cl)c2)n1)NC(=O)c1cc(C(C)O)[nH]n1 (centres undefined)
viability, T/C (compound 0.0316 µM): 105% [middle of 4 runs]
viability, T/C (compound 0.1 µM): 96.9% [middle of 4 runs]
viability, T/C (compound 0.316 µM): 99% (2×) and 93.4% and 120%
viability, T/C (compound 1 µM): 105% [middle of 4 runs]
viability, T/C (compound 3.16 µM): 101% [middle of 4 runs]
viability, T/C (compound 10 µM): 105% [middle of 4 runs]
IC50 (curve of compound): > 10 µM

Structure (SMILES): CC(Nc1ncnc2nc[nH]c12)c1cc2cccc(Cl)c2c(=O)n1-c1ccccc1 (centres undefined)
viability, T/C (compound 0.0316 µM): 102% [middle of 8 runs]
viability, T/C (compound 0.1 µM): 96.3% [middle of 8 runs]
viability, T/C (compound 0.316 µM): 90.4% [middle of 8 runs]
viability, T/C (compound 1 µM): 102% [middle of 8 runs]
viability, T/C (compound 3.16 µM): 96.3% [middle of 8 runs]
viability, T/C (compound 10 µM): 94.9% [middle of 8 runs]
IC50 (compound alone, run of 06/13/2023): > 10 µM

Structure (SMILES): CCCS(=O)(=O)Nc1ccc(F)c(C(=O)c2c[nH]c3ncc(-c4ccc(Cl)cc4)cc23)c1F
viability, T/C (compound 0.0316 µM): 101% [middle of 4 runs]
viability, T/C (compound 0.1 µM): 95% [middle of 4 runs]
viability, T/C (compound 0.316 µM): 96.8% [middle of 4 runs]
viability, T/C (compound 1 µM): 90.3% [middle of 4 runs]
viability, T/C (compound 3.16 µM): 98.2% [middle of 4 runs]
viability, T/C (compound 10 µM): 95.3% [middle of 4 runs]
IC50 (curve of compound): > 10 µM

Now from value to compound, other results behind:

IC50 (curve of compound): > 0.1 µM
Structure (SMILES): CC(C)n1nc(-c2ccc3oc(N)nc3c2)c2c(N)ncnc21
viability, T/C (compound 0.000316 µM): 99.6% [middle of 4 runs]
viability, T/C (compound 0.001 µM): 94.3% [middle of 4 runs]
viability, T/C (compound 0.00316 µM): 93.9% [middle of 4 runs]
viability, T/C (compound 0.1 µM): 63.1% [middle of 4 runs]

IC50 (compound alone, run of 06/12/2023): > 1 µM
Structure (SMILES): CC(Nc1ccc2c(c1)OCCn1cc(N3C(=O)OCC3C(F)F)nc1-2)C(N)=O (centres undefined)
viability, T/C (compound 0.00316 µM): 98.8% [middle of 8 runs]
viability, T/C (compound 0.01 µM): 96.9% [middle of 8 runs]
viability, T/C (compound 0.0316 µM): 98.1% [middle of 8 runs]
viability, T/C (compound 0.1 µM): 96.8% [middle of 8 runs]
viability, T/C (compound 0.316 µM): 91.3% [middle of 8 runs]
viability, T/C (compound 1 µM): 81.1% [middle of 7 runs]

IC50 (curve of compound): > 10 µM
Structure (SMILES): CC1(C)CCC(CN2CCN(c3ccc(C(=O)NS(=O)(=O)c4ccc(NCC5CCOCC5)c([N+](=O)[O-])c4)c(Oc4cnc5[nH]ccc5c4)c3)CC2)=C(c2ccc(Cl)cc2)C1
viability, T/C (compound 0.0316 µM): 97.2% and 102% (2×) and 99.9%
viability, T/C (compound 0.1 µM): 97% [middle of 4 runs]
viability, T/C (compound 0.316 µM): 101% [middle of 4 runs]
viability, T/C (compound 1 µM): 101% [middle of 4 runs]
viability, T/C (compound 3.16 µM): 101% (2×) and 94.9% and 88%

IC50 (curve of compound): > 10 µM
Structure (SMILES): CC1(C)CCC(Nc2ncc(C(F)(F)F)c(-c3c[nH]c4c(P(C)(C)=O)c(C#N)ccc34)n2)CN1 (centres undefined)
viability, T/C (compound 0.0316 µM): 90.7% [middle of 4 runs]
viability, T/C (compound 0.1 µM): 98.6% [middle of 4 runs]
viability, T/C (compound 0.316 µM): 109% [middle of 4 runs]
viability, T/C (compound 1 µM): 129% [middle of 4 runs]
viability, T/C (compound 3.16 µM): 148% (2×) and 176% and 175%
